Read-outs that look alike come from different tables or passages of the source. Blank lines part the entries; values can stand above or below the molecule they belong to.
Columns and labels:
Assay type in all cases: cell-based, Human
PC-9 = assay: CCK-8 tumor cell proliferation, PC-9; details: for IC50: Homo sapiens, PC-9, read-out: IC50 inhibiting proliferation of tumor cells, PC-9
Procedure: The tumor cells used herein were cultured in a cell culture medium listed in table 4 at 37° C. in an incubator with 5% CO2.
(§1) After 24 h, 100 μL of the inoculated cells were treated with 0.5 μL of the compounds of the present disclosure (including the compounds in Tables 1 and 3, and compounds of examples) at 10 different successively decreasing concentrations (starting at the highest concentration of 10 μM; 5-fold serial dilutions). After the cells were treated with the compounds of the present disclosure for a period of time, the cell viability detection reagent was added to the culture medium for cell viability assessment according to the instructions provided with the CCK-8 kit. […] The growth inhibition of the compounds of the present disclosure on cells was plotted by Prism Graphpad software, and the IC50 values of the compounds of the present disclosure were calculated therefrom.

SW620 = assay: CCK-8 tumor cell proliferation, SW620; details: for IC50: Homo sapiens, SW-620, Table 18, FAK inhibitor based, SW620, read-out: IC50 inhibiting proliferation of tumor cells, SW620
Procedure: (§2) The tumor cells used herein were cultured in a cell culture medium listed in table 4 at 37° C. in an incubator with 5% CO2. Prior to experimentation, all cells used were correctly identified by STR profiling, and tested negative for mycoplasma through routine screenings.
as §1, with “IC50 values of the compounds of the present disclosure (including the compounds in Tables 1 and 3, and compounds of examples) were measured using the Meilun Cell Counting Kit-8 kit from Dalian Meilun Biotech Co., Ltd. Assay details are as follows: tumor cells were seeded in a 96-well plate at a density listed in Table 5. After 24” for “After 24”

MDA-MB-231 = assay: CCK-8 tumor cell proliferation, MDA-MB-231; details: Homo sapiens, MDA-MB-231, read-out: IC50 inhibiting proliferation of tumor cells, MDA-MB-231
Procedure: as §2
as §1, with “IC50 values of the compounds of the present disclosure (including the compounds in Tables 1 and 3, and compounds of examples) were measured using the Meilun Cell Counting Kit-8 kit from Dalian Meilun Biotech Co., Ltd. Assay details are as follows: tumor cells were seeded in a 96-well plate at a density listed in Table 5. After 24” for “After 24”

Mino = assay: CCK-8 tumor cell proliferation, Mino; details: Homo sapiens; Table 18, FAK inhibitor based; Mino; read-out: IC50 inhibiting proliferation of tumor cells, Mino
Procedure: as §2
as §1, with “IC50 values of the compounds of the present disclosure (including the compounds in Tables 1 and 3, and compounds of examples) were measured using the Meilun Cell Counting Kit-8 kit from Dalian Meilun Biotech Co., Ltd. Assay details are as follows: tumor cells were seeded in a 96-well plate at a density listed in Table 5. After 24” for “After 24”

SR = assay: CCK-8 tumor cell proliferation, SR; details: for IC50: Homo sapiens, SR, read-out: IC50 inhibiting proliferation of tumor cells, SR
Procedure: as §2
as §1, with “IC50 values of the compounds of the present disclosure (including the compounds in Tables 1 and 3, and compounds of examples) were measured using the Meilun Cell Counting Kit-8 kit from Dalian Meilun Biotech Co., Ltd. Assay details are as follows: tumor cells were seeded in a 96-well plate at a density listed in Table 5. After 24” for “After 24”

CCRF-CEM = assay: CCK-8 tumor cell proliferation, CCRF-CEM; design: IC50 for inhibiting the proliferation of tumor cells, CCRF-CEM: scale not given here; details: Table 14, designed based on CDK4/6 inhibitors; 96 h
Procedure: as §2
as §1, with “IC50 values of the compounds of the present disclosure (including the compounds in Tables 1 and 3, and compounds of examples) were measured using the Meilun Cell Counting Kit-8 kit from Dalian Meilun Biotech Co., Ltd. Assay details are as follows: tumor cells were seeded in a 96-well plate at a density listed in Table 5. After 24” for “After 24”

CAL-62 = assay: CCK-8 tumor cell proliferation, CAL-62; details: Homo sapiens; Table 18, FAK inhibitor based; CAL-62; read-out: IC50 inhibiting proliferation of tumor cells, CAL-62
Procedure: as §2
as §1, with “IC50 values of the compounds of the present disclosure (including the compounds in Tables 1 and 3, and compounds of examples) were measured using the Meilun Cell Counting Kit-8 kit from Dalian Meilun Biotech Co., Ltd. Assay details are as follows: tumor cells were seeded in a 96-well plate at a density listed in Table 5. After 24” for “After 24”

SMILES: O=C1CCC(N2Cc3cc(CN4CCN(C5CCN(c6ccc(Nc7ncc8nc(Nc9ccccc9)n(C9CCCC9)c8n7)cc6)CC5)CC4)ccc3C2=O)C(=O)N1 (centres unmarked) [GT-03808, 3-(5-((4-(1-(4-((9-cyclopentyl-8-(phenylamino)-9H-purin-2-yl)amino)phenyl)piperidin-4-yl)piperazin-1-yl)methyl)-1-oxoisoindolin-2-yl)piperidine-2,6-dione]
IC50 for inhibiting the proliferation of tumor cells, PC-9 (PC-9; Table 11, designed based on EGFR inhibitors, 96 h): A+

SMILES: Cc1cc(Nc2ncc(Cl)c(Nc3ccccc3S(=O)(=O)C(C)C)n2)c(OC(C)C)cc1N1CCN(Cc2ccc3c(c2)CN(C2CCC(=O)NC2=O)C3=O)CC1 (centres unmarked) [GT-03529, 3-(5-((4-(4-((5-chloro-4-((2-(isopropylsulfonyl)phenyl)amino)pyrimidin-2-yl)amino)-5-isopropoxy-2-methylphenyl)piperazin-1-yl)methyl)-1-oxoisoindolin-2-yl)piperidine-2,6-dione]
IC50 (PC-9; Table 15, ALK inhibitor based): 100 to 500 nM | IC50 (SR; Table 15, ALK inhibitor based): < 50 nM | IC50 (MDA-MB-231; Table 15, ALK inhibitor based): 100 to 500 nM

SMILES: CNC(=O)c1ccccc1Nc1cc(Nc2ccc(N3CCC(N(C)Cc4ccc5c(c4)C(=O)N(C4CCC(=O)NC4=O)C5=O)CC3)cc2OC)ncc1C(F)(F)F (centres unmarked) [GT-03732, 2-((2-((4-(4-(((2-(2,6-dioxopiperidin-3-yl)-1,3-dioxoisoindolin-5-yl)methyl)(methyl)amino)piperidin-1-yl)-2-methoxyphenyl)amino)-5-(trifluoromethyl)pyridin-4-yl)amino)-N-methylbenzamide]
IC50 (PC-9; Table 18, FAK inhibitor based): 50 to 100 nM | IC50 (SR; Table 18, FAK inhibitor based): 100 to 500 nM | IC50 (SW620): 1000 to 5000 nM

SMILES: CNC(=O)c1ccccc1Nc1cc(Nc2ccc(N3CCC(N(C)Cc4ccc5c(c4F)CN(C4CCC(=O)NC4=O)C5=O)CC3)cc2OC)ncc1C(F)(F)F (centres unmarked) [GT-03728, 2-((2-((4-(4-(((2-(2,6-dioxopiperidin-3-yl)-4-fluoro-1-oxoisoindolin-5-yl)methyl)(methyl)amino)piperidin-1-yl)-2-methoxyphenyl)amino)-5-(trifluoromethyl)pyridin-4-yl)amino)-N-methylbenzamide]
IC50 (CAL-62): 50 to 100 nM | IC50 (PC-9; Table 18, FAK inhibitor based): 1000 to 5000 nM | IC50 (SR; Table 18, FAK inhibitor based): < 50 nM | IC50 (SW620): 100 to 500 nM | IC50 (MDA-MB-231; Table 18, FAK inhibitor based): < 50 nM | IC50 (Mino): 1000 to 5000 nM

The remaining lines, values ahead:

IC50 (PC-9; Table 18, FAK inhibitor based): 1000 to 5000 nM | IC50 (SW620): < 50 nM | IC50 (MDA-MB-231; Table 18, FAK inhibitor based): < 50 nM | IC50 (Mino): 100 to 500 nM
SMILES: CNC(=O)c1ccccc1Nc1cc(Nc2ccc(N3CCN(Cc4ccc5c(c4F)CN(C4CCC(=O)NC4=O)C5=O)CC3)cc2OC)ncc1C(F)(F)F (centres unmarked) [GT-03712, 2-((2-((4-(4-((2-(2,6-dioxopiperidin-3-yl)-4-fluoro-1-oxoisoindolin-5-yl)methyl)piperazin-1-yl)-2-methoxyphenyl)amino)-5-(trifluoromethyl)pyridin-4-yl)amino)-N-methylbenzamide]

IC50 for inhibiting the proliferation of tumor cells, CCRF-CEM (CCRF-CEM): A+ | IC50 for inhibiting the proliferation of tumor cells, SR (SR; Table 14, designed based on CDK4/6 inhibitors, 72 h): A+ | IC50 for inhibiting the proliferation of tumor cells, SW620 (SW620; Table 14, designed based on CDK4/6 inhibitors, 96 h): A+
SMILES: Cc1nc2c(F)cc(-c3nc(Nc4ccc(N5CCC(N6CCN(Cc7ccc8c(c7)CN(C7CCC(=O)NC7=O)C8=O)CC6)CC5)cn4)ncc3F)cc2n1C(C)C (centres unmarked) [GT-03719, 3-(5-((4-(1-(6-((5-fluoro-4-(4-fluoro-1-isopropyl-2-methyl-1H-benzo[d]imidazol-6-yl)pyrimidin-2-yl)amino)pyridin-3-yl)piperidin-4-yl)piperazin-1-yl)methyl)-1-oxoisoindolin-2-yl)piperidine-2,6-dione]

IC50 (CAL-62): 500 to 1000 nM | IC50 (PC-9; Table 18, FAK inhibitor based): 1000 to 5000 nM | IC50 (SR; Table 18, FAK inhibitor based): 500 to 1000 nM | IC50 (SW620): 1000 to 5000 nM | IC50 (MDA-MB-231; Table 18, FAK inhibitor based): 500 to 1000 nM | IC50 (Mino): 500 to 1000 nM
SMILES: CN(c1nccnc1CNc1nc(Nc2ccc(N3CCN(Cc4ccc5c(c4)CN(C4CCC(=O)NC4=O)C5=O)CC3)cc2)ncc1C(F)(F)F)S(C)(=O)=O (centres unmarked) [GT-03672, N-(3-(((2-((4-(4-((2-(2,6-dioxopiperidin-3-yl)-1-oxoisoindolin-5-yl)methyl)piperazin-1-yl)phenyl)amino)-5-(trifluoromethyl)pyrimidin-4-yl)amino)methyl)pyrazin-2-yl)-N-methylmethanesulfonamide]

Reference: US20260199323A1, “LIGAND COMPOUNDS FOR E3 UBIQUITIN LIGASE, PROTEIN DEGRADERS DEVELOPED ON BASIS OF LIGAND COMPOUNDS, AND USES THEREOF” (GLUETACS THERAPEUTICS (SHANGHAI) CO., LTD., priority 2021, published 2026)
